According to US20250353864A1, “INDAZOLE CONTAINING MACROCYCLES AND THEIR USE” (BLOSSOMHILL THERAPEUTICS, INC., priority 2022, published 2025):

Assays:
Assay type in all cases: biochemical
EGFR WT = EGFR WT (Homo sapiens (Human), UniProt P00533); experiment: HotSpot radiometric kinase assay (Reaction Biology), EGFR WT; details: 10 μM ATP
In short: (§1)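 Kinase, substrate and cofactors are mixed in 20 mM Hepes pH 7.5 with 10 mM MgCl2, 1 mM EGTA, 2 mM DTT and 1% DMSO. Compound is added, and about 20 min later ATP/33P-ATP (10 μM final) starts a 120-min room-temperature reaction, which is then spotted onto P81 paper.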

EGFR (D770_N771insNPG) = EGFR (D770_N771insNPG) (Homo sapiens (Human), UniProt P00533, INS770NPG); experiment: HotSpot radiometric kinase assay, EGFR (D770_N771insNPG); details: 10 μM ATP, read-out: EGFR (Δ770_N771insNPG) IC50
In short: as §1

EGFR Δ746-750 mutant = EGFR Δ746-750 mutant (Homo sapiens (Human), UniProt P00533, DEL746-750); experiment: HotSpot radiometric kinase assay, EGFR Δ746-750 mutant; details: 10 μM ATP
In short: as §1

[1] = biological target: EGFR Δ746-750/C797S mutant (Homo sapiens (Human), UniProt P00533, C797S/DEL746-750); experiment: HotSpot radiometric kinase assay, EGFR Δ746-750/C797S mutant; details: 10 μM ATP
In short: as §1

EGFR L858R mutant = EGFR L858R mutant (Homo sapiens (Human), UniProt P00533, L858R); experiment: HotSpot radiometric kinase assay, EGFR L858R mutant; details: 10 μM ATP
In short: as §1

EGFR L858R/T790M mutant = EGFR L858R/T790M mutant (Homo sapiens (Human), UniProt P00533, L858R/T790M); experiment: HotSpot radiometric kinase assay, EGFR L858R/T790M mutant; details: 10 μM ATP
Chain of EGFR L858R/T790M mutant (P00533 25-1210 T790M/L858R): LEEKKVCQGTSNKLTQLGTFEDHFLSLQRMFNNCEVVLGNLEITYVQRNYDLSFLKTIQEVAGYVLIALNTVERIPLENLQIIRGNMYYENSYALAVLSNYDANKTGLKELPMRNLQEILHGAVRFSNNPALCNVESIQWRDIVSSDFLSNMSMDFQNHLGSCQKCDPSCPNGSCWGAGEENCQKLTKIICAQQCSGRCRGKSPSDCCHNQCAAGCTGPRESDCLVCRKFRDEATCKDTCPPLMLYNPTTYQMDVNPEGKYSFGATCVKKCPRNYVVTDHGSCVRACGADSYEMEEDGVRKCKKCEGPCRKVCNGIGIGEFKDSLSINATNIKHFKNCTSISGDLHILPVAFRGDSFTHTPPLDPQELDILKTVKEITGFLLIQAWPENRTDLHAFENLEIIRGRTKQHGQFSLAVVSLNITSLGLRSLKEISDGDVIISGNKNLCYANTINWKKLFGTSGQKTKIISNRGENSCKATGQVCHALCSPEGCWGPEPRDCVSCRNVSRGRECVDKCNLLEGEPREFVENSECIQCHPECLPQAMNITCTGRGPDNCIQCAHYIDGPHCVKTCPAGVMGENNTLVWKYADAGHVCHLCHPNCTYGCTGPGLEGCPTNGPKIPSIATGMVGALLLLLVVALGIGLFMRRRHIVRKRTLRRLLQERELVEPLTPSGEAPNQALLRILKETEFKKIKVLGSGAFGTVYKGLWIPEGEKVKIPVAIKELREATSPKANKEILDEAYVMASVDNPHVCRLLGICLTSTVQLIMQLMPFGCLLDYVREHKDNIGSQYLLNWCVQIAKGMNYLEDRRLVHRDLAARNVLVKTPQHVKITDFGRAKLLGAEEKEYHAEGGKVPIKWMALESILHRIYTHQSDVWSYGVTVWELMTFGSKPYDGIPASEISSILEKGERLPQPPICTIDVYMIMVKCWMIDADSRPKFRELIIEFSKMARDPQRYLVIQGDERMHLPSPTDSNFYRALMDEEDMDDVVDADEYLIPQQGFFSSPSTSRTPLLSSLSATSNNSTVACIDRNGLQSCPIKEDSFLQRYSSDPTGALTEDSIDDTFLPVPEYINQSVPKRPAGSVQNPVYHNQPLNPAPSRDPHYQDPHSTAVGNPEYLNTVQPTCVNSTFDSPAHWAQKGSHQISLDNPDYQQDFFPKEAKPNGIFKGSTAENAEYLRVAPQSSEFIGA
In short: as §1

[2] = biological target: EGFR L858R/T790M/C797S mutant (Homo sapiens (Human), UniProt P00533, C797S/L858R/T790M); experiment: HotSpot radiometric kinase assay, EGFR L858R/T790M/C797S mutant; details: 10 μM ATP
Chain of EGFR L858R/T790M/C797S mutant (P00533 25-1210 T790M/C797S/L858R): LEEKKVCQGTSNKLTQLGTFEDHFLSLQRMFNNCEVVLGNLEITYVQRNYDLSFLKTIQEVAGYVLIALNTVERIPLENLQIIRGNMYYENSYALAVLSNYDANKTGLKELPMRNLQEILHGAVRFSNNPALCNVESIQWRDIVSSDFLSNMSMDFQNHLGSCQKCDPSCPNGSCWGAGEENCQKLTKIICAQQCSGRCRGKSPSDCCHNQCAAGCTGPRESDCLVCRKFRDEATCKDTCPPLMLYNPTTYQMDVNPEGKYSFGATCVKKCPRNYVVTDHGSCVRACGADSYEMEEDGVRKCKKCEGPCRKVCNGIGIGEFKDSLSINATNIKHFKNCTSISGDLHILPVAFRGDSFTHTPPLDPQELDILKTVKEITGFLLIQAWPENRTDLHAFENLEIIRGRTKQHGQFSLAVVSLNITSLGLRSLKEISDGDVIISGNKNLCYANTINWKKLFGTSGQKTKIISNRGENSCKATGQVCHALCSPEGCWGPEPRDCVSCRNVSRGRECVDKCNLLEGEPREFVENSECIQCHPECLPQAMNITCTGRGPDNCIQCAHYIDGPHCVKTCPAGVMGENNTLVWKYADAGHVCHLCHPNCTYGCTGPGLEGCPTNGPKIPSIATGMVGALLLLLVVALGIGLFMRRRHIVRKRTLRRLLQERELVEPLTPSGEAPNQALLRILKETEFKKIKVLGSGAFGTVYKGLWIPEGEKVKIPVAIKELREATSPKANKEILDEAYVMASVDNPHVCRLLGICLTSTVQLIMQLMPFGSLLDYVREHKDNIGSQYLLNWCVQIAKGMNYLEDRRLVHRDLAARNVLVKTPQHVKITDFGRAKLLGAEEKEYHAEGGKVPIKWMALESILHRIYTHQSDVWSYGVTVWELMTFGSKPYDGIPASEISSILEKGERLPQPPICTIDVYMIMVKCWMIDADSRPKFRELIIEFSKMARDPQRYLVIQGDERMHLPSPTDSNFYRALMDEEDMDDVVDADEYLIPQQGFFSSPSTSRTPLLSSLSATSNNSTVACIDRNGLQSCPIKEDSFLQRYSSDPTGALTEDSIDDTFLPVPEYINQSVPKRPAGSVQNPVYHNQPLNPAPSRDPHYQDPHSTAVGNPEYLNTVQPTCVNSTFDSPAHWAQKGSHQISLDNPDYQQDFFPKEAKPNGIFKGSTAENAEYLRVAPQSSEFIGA
In short: as §1

CLK1 = CLK1 (Homo sapiens (Human), UniProt P49759); experiment: Inhibition of CLK1 kinase activity evaluated at Nanosyn (ADP-Glo); details: ADP-Glo luminescence
Chain of CLK1 (P49759 whole entry): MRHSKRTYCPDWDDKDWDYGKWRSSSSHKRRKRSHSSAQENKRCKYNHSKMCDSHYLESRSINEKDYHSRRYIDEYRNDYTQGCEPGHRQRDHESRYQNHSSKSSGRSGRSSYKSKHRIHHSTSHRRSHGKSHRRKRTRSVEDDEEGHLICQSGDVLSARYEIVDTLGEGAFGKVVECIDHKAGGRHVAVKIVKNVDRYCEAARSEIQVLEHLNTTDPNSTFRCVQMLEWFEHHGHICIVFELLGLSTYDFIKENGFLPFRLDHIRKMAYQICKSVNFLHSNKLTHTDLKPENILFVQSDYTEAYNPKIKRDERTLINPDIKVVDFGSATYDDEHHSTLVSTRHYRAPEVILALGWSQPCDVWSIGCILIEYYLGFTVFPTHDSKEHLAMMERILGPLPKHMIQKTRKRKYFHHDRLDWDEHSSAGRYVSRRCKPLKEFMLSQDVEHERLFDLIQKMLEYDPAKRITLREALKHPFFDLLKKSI
In short: (§2)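 Enzyme + substrate in HEPES pH 7.5/MgCl2/DTT buffer; compound dispensed acoustically, 1% DMSO. ATP start, assay-specific incubation time. ADP-Glo reagent 40 min, detection reagent 10 min, luminescence. %inh vs DMSO (0%) and no-enzyme (100%) controls.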

CLK2 = CLK2 (Homo sapiens (Human), UniProt P49760); experiment: Inhibition of CLK2 kinase activity evaluated at Nanosyn (ADP-Glo); details: ADP-Glo luminescence
In short: as §2

CLK3 = CLK3 (Homo sapiens (Human), UniProt P49761); experiment: Inhibition of CLK3 kinase activity evaluated at Nanosyn (ADP-Glo); details: ADP-Glo luminescence
Chain of CLK3 (P49761 whole entry): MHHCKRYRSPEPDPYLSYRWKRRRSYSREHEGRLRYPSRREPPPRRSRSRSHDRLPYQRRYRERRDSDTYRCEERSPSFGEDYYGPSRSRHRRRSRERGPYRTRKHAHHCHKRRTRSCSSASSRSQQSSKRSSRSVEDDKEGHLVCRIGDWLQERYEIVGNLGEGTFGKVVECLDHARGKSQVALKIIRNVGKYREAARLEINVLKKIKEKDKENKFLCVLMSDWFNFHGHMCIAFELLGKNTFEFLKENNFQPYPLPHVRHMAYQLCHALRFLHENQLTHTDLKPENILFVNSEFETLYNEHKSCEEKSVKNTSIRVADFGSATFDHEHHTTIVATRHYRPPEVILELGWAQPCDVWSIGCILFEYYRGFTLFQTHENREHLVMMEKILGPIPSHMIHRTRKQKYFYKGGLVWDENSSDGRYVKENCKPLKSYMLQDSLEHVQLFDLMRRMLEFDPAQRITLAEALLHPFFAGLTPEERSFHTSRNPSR
In short: as §2

CLK4 = CLK4 (Homo sapiens (Human), UniProt Q9HAZ1); experiment: Inhibition of CLK4 kinase activity evaluated at Nanosyn (ADP-Glo); details: ADP-Glo luminescence
Chain of CLK4 (Q9HAZ1 whole entry): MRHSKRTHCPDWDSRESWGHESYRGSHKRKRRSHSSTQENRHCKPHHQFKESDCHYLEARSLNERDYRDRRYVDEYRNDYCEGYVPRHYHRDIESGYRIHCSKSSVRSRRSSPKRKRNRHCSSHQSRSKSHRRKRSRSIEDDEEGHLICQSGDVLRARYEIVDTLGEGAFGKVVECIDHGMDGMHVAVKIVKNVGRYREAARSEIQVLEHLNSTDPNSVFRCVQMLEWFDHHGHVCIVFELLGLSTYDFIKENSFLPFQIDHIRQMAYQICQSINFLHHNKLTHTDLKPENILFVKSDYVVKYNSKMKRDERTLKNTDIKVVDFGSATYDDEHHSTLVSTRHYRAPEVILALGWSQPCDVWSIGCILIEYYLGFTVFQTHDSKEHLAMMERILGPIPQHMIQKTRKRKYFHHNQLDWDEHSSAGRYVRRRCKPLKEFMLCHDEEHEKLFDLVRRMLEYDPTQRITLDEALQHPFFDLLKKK
In short: as §2

Chain of EGFR WT (P00533 25-1210): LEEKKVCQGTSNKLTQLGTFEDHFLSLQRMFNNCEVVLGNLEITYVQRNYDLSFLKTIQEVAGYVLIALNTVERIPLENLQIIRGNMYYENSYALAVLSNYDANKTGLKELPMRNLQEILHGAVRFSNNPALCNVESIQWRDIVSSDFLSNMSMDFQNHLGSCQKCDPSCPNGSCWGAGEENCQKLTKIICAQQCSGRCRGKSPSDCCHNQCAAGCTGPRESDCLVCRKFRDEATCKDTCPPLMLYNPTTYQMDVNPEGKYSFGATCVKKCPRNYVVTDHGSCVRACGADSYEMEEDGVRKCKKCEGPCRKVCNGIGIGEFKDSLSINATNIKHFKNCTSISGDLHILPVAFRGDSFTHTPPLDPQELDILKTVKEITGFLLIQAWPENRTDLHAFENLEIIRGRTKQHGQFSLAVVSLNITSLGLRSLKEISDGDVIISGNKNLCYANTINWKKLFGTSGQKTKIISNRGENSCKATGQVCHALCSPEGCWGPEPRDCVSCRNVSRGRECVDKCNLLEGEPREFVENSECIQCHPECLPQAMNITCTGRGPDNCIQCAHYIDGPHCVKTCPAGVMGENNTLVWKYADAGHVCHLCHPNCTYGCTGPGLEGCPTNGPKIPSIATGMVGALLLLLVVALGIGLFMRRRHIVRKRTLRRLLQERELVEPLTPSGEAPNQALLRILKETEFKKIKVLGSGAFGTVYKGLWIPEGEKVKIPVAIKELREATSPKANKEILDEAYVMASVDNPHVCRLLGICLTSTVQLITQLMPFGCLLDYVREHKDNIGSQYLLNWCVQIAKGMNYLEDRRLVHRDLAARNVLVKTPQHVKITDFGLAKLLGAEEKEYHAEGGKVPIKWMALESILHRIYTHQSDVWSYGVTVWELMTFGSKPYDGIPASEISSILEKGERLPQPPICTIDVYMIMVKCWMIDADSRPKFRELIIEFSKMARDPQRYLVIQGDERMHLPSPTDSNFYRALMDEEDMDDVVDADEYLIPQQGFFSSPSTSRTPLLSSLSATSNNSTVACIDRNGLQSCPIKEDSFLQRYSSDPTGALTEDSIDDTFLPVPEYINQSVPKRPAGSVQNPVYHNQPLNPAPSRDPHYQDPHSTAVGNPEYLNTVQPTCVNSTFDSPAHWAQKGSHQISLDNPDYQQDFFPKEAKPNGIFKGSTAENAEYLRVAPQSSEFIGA

IC50 (EGFR WT) [nM]	IC50 (EGFR (D770_N771insNPG)) [nM]	IC50 (EGFR Δ746-750 mutant) [nM]	IC50 [1] [nM]	IC50 (EGFR L858R mutant) [nM]	IC50 (EGFR L858R/T790M mutant) [nM]	IC50 [2] [nM]	IC50 (CLK1) [nM]	IC50 (CLK2) [nM]	IC50 (CLK3) [nM]	IC50 (CLK4) [nM]	Compound
7.91	30.5	2.01	1.32	4.35	1.04	0.52	0.57	0.18	45.1	1.22	C[C@H](C#N)Oc1nn(CCO)c2c1/C=C/c1n[nH]c3cc(F)c(cc13)-c1cnn(C)c1O[C@@H](C)CN(C)C2 [Ex. 268, (2R)-2-{[(10S,17E)-19-fluoro-14-(2-hydroxyethyl)-8,10,12-trimethyl-2,10,11,12,13,14-hexahydro-8H-3,5-ethenotripyrazolo[3,4-f:3′,4′-j:4″,3″-n][1,4]oxazacyclopentadecin-16-yl]oxy}propanenitrile]
6.19	9.21	1.08	1.96	1.23	0.29	0.17	0.21	0.06	21.4	0.76	Cc1nn(CCO)c2c1/C=C/c1n[nH]c3ccc(cc13)-c1cnn(C)c1O[C@@H](C)CN(C)C2 [Example 61, 2-[(10S,17E)-8,10,12,16-tetramethyl-2,8,10,11,12,13-hexahydro-14H-3,5-ethenotripyrazolo[3,4-f:3′,4′-j:4″,3″- n][1,4]oxazacyclopentadecin-14-yl]ethan-1-ol]
121	222	8.98	6.43	50.7	1.19	0.6	0.87	0.99	369	1.44	CC(C)Oc1nn(CCO)c2c1/C=C/c1n[nH]c3ccc(cc13)-c1cnn(C)c1OCC(CF)N(C)C2 (stereo not shown) [Example 226, 2-{(17E)-11-(fluoromethyl)-8,12-dimethyl-16-[(propan-2-yl)oxy]-2,8,10,11.12,13-hexahydro-14H-3,5-ethenotripyrazolo[3,4-f:3′,4′-j:4″,3″-n][1,4]oxazacyclopentadecin-14-yl}ethan-1-ol]
90.1	77.3	10.2	5.92	36.6	2.42	1.05	31.8	45.4	1000	21	CC(C)Oc1nn(CCO)c2c1/C=C/c1n[nH]c3ccc(cc13)-c1cnn(C)c1O[C@H](C)CN(C(C)C)C2 [Example 193, 2-{(10R,17E)-8,10-dimethyl-12-(propan-2-yl)-16-[(propan-2-yl)oxy]-2,8,10,11,12,13-hexahydro-14H-3,5-ethenotripyrazolo[3,4-f:3′,4′-j:4″,3″-n][1,4]oxazacyclopentadecin-14-yl}ethan-1-ol]
> 1000	> 1000	> 1000	> 1000	> 1000	1010	507	2.75	9.57	1000	1.66	CC(C)c1noc2c1/C=C/c1n[nH]c3ccc(cc13)-c1cnn(C)c1O[C@@H](C)CN(C)C2 [Example 179, (10S,17E)-8,10,12-trimethyl-16-(propan-2-yl)-2,8,10,11,12,13-hexahydro-3,5-etheno[1,2]oxazolo[5,4-f]dipyrazolo[3,4-j:4′,3′-n][1,4]oxazacyclopentadecine]
296	431	21.1	5.07	82.6	0.42	0.2	5.75	6.11	1	5.07	CC(C)Oc1nn(CCO)c2c1/C=C/c1n[nH]c3ccc(cc13)-c1cnn(C)c1OC[C@H](C)N(C1CC1)C2 [Example 213, 2-{(11S,17E)-12-cyclopropyl-8,11-dimethyl-16-[(propan-2-yl)oxy]-2,8,10,11,12,13-hexahydro-14H-3,5-ethenotripyrazolo[3,4-f:3′,4′-j:4″,3″- n][1,4]oxazacyclopentadecin-14-yl}ethan-1-ol]
721	284	39.4	67	157	20.1	35.3	0.19	0.02	0.28	0.3	Cn1ncc2c1OCCN1CC[C@@H](Oc3ccc(F)cc3/C=C/c3n[nH]c4ccc-2cc34)C1=O [Example 132, (10R,16E)-14-fluoro-3-methyl-3,5,6,9,10,19-hexahydro-8H-20,22-etheno-7,10-methanodipyrazolo[3,4-i:4′,3′-m][1,8,5]benzodioxazacyclooctadecin-25-one]
20.3	102	5.25	2.56	8.53	1.82	0.67	0.94	0.32	238	1.76	C[C@@H](C#N)Oc1nn(CCO)c2c1/C=C/c1n[nH]c3cc(F)c(cc13)-c1cnn(C)c1O[C@@H](C)CN(C)C2 [Ex. 269, (2S)-2-{[(10S,17E)-19-fluoro-14-(2-hydroxyethyl)-8,10,12-trimethyl-2,10,11,12,13,14-hexahydro-8H-3,5-ethenotripyrazolo[3,4-f:3′,4′-j:4″,3″-n][1,4]oxazacyclopentadecin-16-yl]oxy}propanenitrile]
320	1630	39.4	41.3	39.6	1.58	4.63	0.19	0.02	12.1	0.61	C[C@H]1CN(C)Cc2c(c(OC3CCN(S(C)(=O)=O)CC3)nn2C)/C=C/c2n[nH]c3ccc(cc23)-c2cnn(C)c2O1 [Example 143, (10S,17E)-16-{[1-(methanesulfonyl)piperidin-4-yl]oxy}-8,10,12,14-tetramethyl-2,10,11, 12,13,14-hexahydro-8H-3,5-ethenotripyrazolo[3,4-f 3′,4′-j:4″,3″-n][1,4]oxazacyclopentadecine]
25.9	74.7	8.88	7.84	6.88	0.47	0.33	0.48	0.3	311	1.35	C[C@H]1CN(C)Cc2c(c(OC3CC(S(C)(=O)=O)C3)nn2C)/C=C/c2n[nH]c3ccc(cc23)-c2cnn(C)c2O1 (stereo partly drawn) [Example 187, (10S,17E)-16-{I3-(methanesulfonyl)cyclobutyl|oxy}-8,10,12,14-tetramethyl-2,10,11,12,13,14-hexahydro-8H-3,5-ethenotripyrazolo[3,4-f:3′,4′-j:4″,3″-n][1,4]oxazacyclopentadecine]
43.8	59.1	12.9	3.06	14.6	1.48	0.46	0.24	0.18	126	1	C[C@H]1CN(C)Cc2c(c(O)nn2CCO)/C=C/c2n[nH]c3ccc(cc23)-c2cnn(C)c2O1 [Example 186, (10S,17E)-14-(2-hydroxyethyl)-8,10,12-trimethyl-2,10,11,12,13,14-hexahydro-8H-3,5-ethenotripyrazolo[3,4-f:3′,4′-j:4″,3″-n][1,4]oxazacyclopentadecin-16-ol]
